Assay results from patent US20250262299A1, “DOSING FOR TREATMENT WITH ANTI-FCRH5/ANTI-CD3 BISPECIFIC ANTIBODIES” (Genentech, Inc., priority 2022, published 2025).

Assays:
[1] = tested on: MM; settings: lenalidomide maintenance, active vs. control; cited from earlier work
[2] = tested on: R/R MM; assay: Study GO39775 / cevostamab monotherapy clinical studies in patients with R/R MM; format: in vivo, human
Excerpt: As of November 2021, two studies are ongoing to confirm the safety and efficacy of cevostamab in this patient population. As such, combination with lenalidomide is expected to deepen and prolong response in patients in remission on the following basis: • FcRH5 is a cell-surface antigen whose expression is restricted to cells of the B linage, including plasma cells. […] Rationale for Cevostamab Dose
The dosing schedule has been modified from a 21-day cycle to a 28-day cycle to accommodate lenalidomide dosing and to ease patient treatment burden. […] A lower target dose of 90 mg Q2W will be the starting point of dose escalation towards 132 mg. These doses have been selected based on the full body of evidence available across cevostamab studies, considering PD, PK, safety, and efficacy data.

[3] = Compatibility testing in extension sets; format: physicochemical; settings: IV infusion extension sets
Excerpt: Cevostamab will be administered as a fixed dose independent of body weight. Cevostamab will be administered to patients by IV infusion using standard IV bags where applicable. […] The drug product will be delivered by IV bag infusion, with a final cevostamab volume determined by the dose.

[4] = tested on: human MM cell lines and primary human MM plasma cells; settings: cells with a wide range of FcRH5 expression levels, including minimal expression; cited from earlier work
[5] = tested on: Fc (Fcγ) receptors; settings: N297G non-glycosylated antibody; cited from earlier work
[6] = Study GO39775, 0.3/3.6/160 mg, patients with R/R MM
[7] = Study GO39775, preliminary findings
[8] = cevostamab monotherapy, patients with R/R MM

## Nc1cccc2c1CN(C1CCC(=O)NC1=O)C2=O (stereo not drawn) [lenalidomide]
[1]
  overall survival (OS): statistically significant increase
  progression-free survival (PFS): statistically significant increase

## cevostamab: Fc-engineered, humanized, full-length non-glycosylated IgG1 kappa T-cell-dependent bispecific antibody (TDB) that binds FcRH5 and CD3
[2]; Study GO39775, 160 mg every three weeks (Q3W)
  safety of target dose: found to be safe
[2]; [6]
  induction of response with double step-up dosing: effective at inducing a response
  safety of double step-up dosing: safe
[2]; [7]
  clinical response in patients with the lowest FcRH5 expression: Clinical response has been observed
  objective response in relation to baseline FcRH5 expression: able to achieve an objective response to cevostamab treatment regardless of baseline FcRH5 expression
[2]; [8]
  efficacy: shown efficacy
  safety profile: acceptable safety profile
[3]
  stability in extension sets: stable in extension sets
[4]
  cell killing: broadly active in cell killing
[5]
  binding to Fc (Fcγ) receptors: minimal binding
